Laboratory results as given in patent publication US10442803B2, “Tricyclic heterocycles as bet protein inhibitors” (Incyte Corporation, priority 2013, dated 2019).
Structures can show the parent of a compound that is named as a salt.

Test system: KMS.12.BM cells
Experiment: KMS.12.BM cell viability assay
Assay type: cell-based
Settings: 72 h; KMS.12.BM human myeloma cells, 3 days, Cell Titer-GLO ATP quantitation; read-out: KMS cellular IC50
Procedure, shortened: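 IC50 derived from luminescent ATP quantitation (Cell Titer-GLO) of viable cells after 3-day compound treatment. KMS.12.BM human myeloma line seeded at 5000 cells/well in RPMI with 10% FBS.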

Structure (SMILES): Cc1cc2c(cc(NC3CCN(S(C)(=O)=O)CC3)c3nnc(C)n32)n1Cc1ccccc1 [Example 211, 6-Benzyl-1,7-dimethyl-N-[1-(methylsulfonyl)piperidin-4-yl]-6H-pyrrolo[2,3-e][1,2,4]triazolo[4,3-a]pyridin-4-amine]
- IC50: ≤ 1 µM

Structure (SMILES): Cc1cc2c(cc(N[C@H]3CC[C@@H](N)CC3)c3nnc(C)n32)n1Cc1ccccc1 [Example 218, cis-N-(6-Benzyl-1,7-dimethyl-6H-pyrrolo[2,3-e][1,2,4]triazolo[4,3-a]pyridin-4-yl)cyclohexane-1,4-diamine]
- IC50: 1 to 10 µM

Structure (SMILES): Cc1nnc2ccc3c(cc(-c4ccn(CCC(=O)N5CCC5)n4)n3Cc3cccc(Cl)c3)n12 [Example 104, 7-[1-(3-azetidin-1-yl-3-oxopropyl)-1H-pyrazol-3-yl]-6-(3-chlorobenzyl)-1-methyl-6H-pyrrolo[2,3-e][1,2,4]triazolo[4,3-a]pyridine]
- IC50: ≤ 1 µM

Structure (SMILES): Cc1nnc2ccc3c(cc(-c4cscn4)n3Cc3ccccc3)n12 [Example 66, 6-benzyl-1-methyl-7-(1,3-thiazol-4-yl)-6H-pyrrolo[2,3-e][1,2,4]triazolo[4,3-a]pyridine]
- IC50: ≤ 1 µM

Structure (SMILES): Cc1cc2c(ccc3nnc(C)n32)n1Cc1cccc(O)c1 [Example 23, 3-[(1,7-dimethyl-6H-pyrrolo[2,3-e][1,2,4]triazolo[4,3-a]pyridin-6-yl)methyl]phenol]
- IC50: ≤ 1 µM

Structure (SMILES): Cc1cc2c(cc(NCC3CC3)c3nnc(C)n32)n1Cc1ccccc1 [Example 228, 6-Benzyl-N-(cyclopropylmethyl)-1,7-dimethyl-6H-pyrrolo[2,3-e][1,2,4]triazolo[4,3-a]pyridin-4-amine]
- IC50: 1 to 10 µM

Structure (SMILES): Cc1nnc2ccc3c(cc(-c4ccn(C5CN(C(=O)C6CC6)C5)n4)n3Cc3cccc(Cl)c3)n12 [Example 164, 6-(3-Chlorobenzyl)-7-{1-[1-(cyclopropylcarbonyl)azetidin-3-yl]-1H-pyrazol-3-yl}-1-methyl-6H-pyrrolo[2,3-e][1,2,4]triazolo[4,3-a]pyridine trifluoroacetate salt]
- IC50: ≤ 1 µM

Structure (SMILES): Cc1nnc2ccc3c(cc(-c4ncco4)n3Cc3cc(Cl)cc(CN4CC(O)C4)c3)n12 [Example 198, 1-(3-Chloro-5-{[1-methyl-7-(1,3-oxazol-2-yl)-6H-pyrrolo[2,3-e][1,2,4]triazolo[4,3-a]pyridin-6-yl]methyl}benzyl)azetidin-3-ol bis(trifluoroacetate) salt]
- IC50: ≤ 1 µM

Structure (SMILES): Cc1cc2c(ccc3nnc(C)n32)n1Cc1cccc(CN2CCC2)c1 [Example 28, 6-[3-(azetidin-1-ylmethyl)benzyl]-1,7-dimethyl-6H-pyrrolo[2,3-e][1,2,4]triazolo[4,3-a]pyridine]
- IC50: ≤ 1 µM

Structure (SMILES): Cc1nnc2ccc3c(cc(-c4ccn[nH]4)n3Cc3ccccc3)n12 [Example 62, 6-benzyl-1-methyl-7-(1H-pyrazol-5-yl)-6H-pyrrolo[2,3-e][1,2,4]triazolo[4,3-a]pyridine]
- IC50: ≤ 1 µM

Structure (SMILES): Cc1cc2c(cc(Nc3nc4ccccc4o3)c3nnc(C)n32)n1Cc1ccccc1 [Example 203, N-1,3-Benzoxazol-2-yl-6-benzyl-1,7-dimethyl-6H-pyrrolo[2,3-e][1,2,4]triazolo[4,3-a]pyridin-4-amine bis(trifluoroacetate) salt]
- IC50: ≤ 1 µM

Structure (SMILES): CCNC(=O)c1cc2c(ccc3nnc(C)n32)n1Cc1ccccc1 [Example 59, 6-benzyl-N-ethyl-1-methyl-6H-pyrrolo[2,3-e][1,2,4]triazolo[4,3-a]pyridine-7-carboxamide]
- IC50: ≤ 1 µM

Structure (SMILES): Cc1cc2c(ccc3nnc(C)n32)n1Cc1cccc(CN2CCCCC2)c1 [Example 46, 1,7-dimethyl-6-[3-(piperidin-1-ylmethyl)benzyl]-6H-pyrrolo[2,3-e][1,2,4]triazolo[4,3-a]pyridine]
- IC50: ≤ 1 µM

Structure (SMILES): Cc1cc2c(cc(Nc3ccn(C)n3)c3nnc(C)n32)n1Cc1ccccc1 [Example 202, 6-Benzyl-1,7-dimethyl-N-(1-methyl-1H-pyrazol-3-yl)-6H-pyrrolo[2,3-e][1,2,4]triazolo[4,3-a]pyridin-4-amine tris(trifluoroacetate) salt]
- IC50: ≤ 1 µM

Structure (SMILES): Cc1nnc2ccc3c(cc(-c4nccs4)n3Cc3ccccc3)n12 [Example 67, 6-benzyl-1-methyl-7-(1,3-thiazol-2-yl)-6H-pyrrolo[2,3-e][1,2,4]triazolo[4,3-a]pyridine]
- IC50: ≤ 1 µM

Structure (SMILES): Cc1cc2c(cc(NC(C)C)c3nnc(C)n32)n1Cc1ccccc1 [Example 263, 6-Benzyl-N-isopropyl-1,7-dimethyl-6H-pyrrolo[2,3-e][1,2,4]triazolo[4,3-a]pyridin-4-amine]
- IC50: 1 to 10 µM

Structure (SMILES): Cc1cc2c(cc(NC3CCNCC3)c3nnc(C)n32)n1Cc1ccccc1 [Example 206, 6-Benzyl-1,7-dimethyl-N-piperidin-4-yl-6H-pyrrolo[2,3-e][1,2,4]triazolo[4,3-a]pyridin-4-amine]
- IC50: ≤ 1 µM

Structure (SMILES): CC(=O)N1CC(n2ccc(-c3cc4c(ccc5nnc(C)n54)n3Cc3cccc(Cl)c3)n2)C1 [Example 108, 7-[1-(1-acetylazetidin-3-yl)-1H-pyrazol-3-yl]-6-(3-chlorobenzyl)-1-methyl-6H-pyrrolo[2,3-e][1,2,4]triazolo[4,3-a]pyridine]
- IC50: ≤ 1 µM

Structure (SMILES): Cc1cc2c(ccc3nnc(C)n32)n1Cc1cccc(NC(N)=O)c1 [Example 44, N-{3-[(1,7-dimethyl-6H-pyrrolo[2,3-e][1,2,4]triazolo[4,3-a]pyridin-6-yl)methyl]phenyl}urea]
- IC50: 1 to 10 µM

Structure (SMILES): CCNC(=O)c1cc2c(ccc3nnc(C)n32)n1Cc1cccc(CN2CCC2)c1 [Example 121, 6-[3-(Azetidin-1-ylmethyl)benzyl]-N-ethyl-1-methyl-6H-pyrrolo[2,3-e][1,2,4]triazolo[4,3-a]pyridine-7-carboxamide bis(trifluoroacetate) salt]
- IC50: ≤ 1 µM

Structure (SMILES): Cc1nnc2ccc3c(cc(-c4ccn(C)n4)n3Cc3cc(Cl)cc(CN4CCOCC4)c3)n12 [Example 192, 6-[3-Chloro-5-(morpholin-4-ylmethyl)benzyl]-1-methyl-7-(1-methyl-1H-pyrazol-3-yl)-6H-pyrrolo[2,3-e][1,2,4]triazolo[4,3-a]pyridine bis(trifluoroacetate) salt]
- IC50: ≤ 1 µM

Structure (SMILES): Cc1nnc2ccc3c(cc(C#N)n3Cc3ccccc3)n12 [Example 227, 6-Benzyl-1-methyl-6H-pyrrolo[2,3-e][1,2,4]triazolo[4,3-a]pyridine-7-carbonitrile trifluoroacetate salt]
- IC50: ≤ 1 µM

Structure (SMILES): Cc1cc2c(ccc3nnc(C)n32)n1Cc1cccc(CN[C@H]2C[C@H](O)C2)c1 [Example 39, (1r,3r)-3-((3-((1,7-dimethyl-6H-pyrrolo[2,3-e][1,2,4]triazolo[4,3-a]pyridin-6-yl)methyl)benzyl)amino)cyclobutanol]
- IC50: ≤ 1 µM

Structure (SMILES): Cc1nnc2ccc3c(cc(-c4ccn(CC(C)C#N)n4)n3Cc3ccccc3)n12 (racemic) [Example 88, 3-[3-(6-benzyl-1-methyl-6H-pyrrolo[2,3-e][1,2,4]triazolo[4,3-a]pyridin-7-yl)-1H-pyrazol-1-yl]-2-methylpropanenitrile trifluoroacetate salt (racemate)]
- IC50: ≤ 1 µM

Structure (SMILES): CCNCc1cccc(Cn2c(C)cc3c2ccc2nnc(C)n23)c1 [Example 42, N-{3-[(1,7-dimethyl-6H-pyrrolo[2,3-e][1,2,4]triazolo[4,3-a]pyridin-6-yl)methyl]benzyl}ethanamine]
- IC50: ≤ 1 µM

Structure (SMILES): CNc1cc2c(cc(C)n2Cc2ccccc2)n2c(C)nnc12 [Example 261, 6-Benzyl-N,1,7-trimethyl-6H-pyrrolo[2,3-e][1,2,4]triazolo[4,3-a]pyridin-4-amine]
- IC50: ≤ 1 µM

Structure (SMILES): Cc1cc2c(cc(NCCCN)c3nnc(C)n32)n1Cc1ccccc1 [Example 257, N1-(6-Benzyl-1,7-dimethyl-6H-pyrrolo[2,3-e][1,2,4]triazolo[4,3-a]pyridin-4-yl)propane-1,3-diamine]
- IC50: ≤ 1 µM

Structure (SMILES): Cc1cc2c(cc(NC(=O)NC(C)C)c3nnc(C)n32)n1Cc1ccccc1 [Example 250, 1-(6-Benzyl-1,7-dimethyl-6H-pyrrolo[2,3-e][1,2,4]triazolo[4,3-a]pyridin-4-yl)-3-isopropylurea]
- IC50: ≤ 1 µM

Structure (SMILES): CNC(=O)c1cc2c(ccc3nnc(C)n32)n1Cc1cccc(F)c1 [Example 102, 6-(3-fluorobenzyl)-N,1-dimethyl-6H-pyrrolo[2,3-e][1,2,4]triazolo[4,3-a]pyridine-7-carboxamide]
- IC50: ≤ 1 µM

Structure (SMILES): Cc1cc2c(cc(N[C@@H]3CCN(C(=O)OC(C)(C)C)C3)c3nnc(C)n32)n1Cc1ccccc1 [Example 149, tert-butyl (3R)-3-[(6-benzyl-1,7-dimethyl-6H-pyrrolo[2,3-e][1,2,4]triazolo[4,3-a]pyridin-4-yl)amino]pyrrolidine-1-carboxylate]
- IC50: 1 to 10 µM

Structure (SMILES): Cc1cc2c(ccc3nnc(C)n32)n1Cc1cccnc1 [Example 11, 1,7-dimethyl-6-(pyridin-3-ylmethyl)-6H-pyrrolo[2,3-e][1,2,4]triazolo[4,3-a]pyridine]
- IC50: 1 to 10 µM

Structure (SMILES): Cc1cc2c(cc(NC(N)=O)c3nnc(C)n32)n1Cc1ccc(F)c(F)c1 [Example 234, 1-(6-(3,4-Difluorobenzyl)-1,7-dimethyl-6H-pyrrolo[2,3-e][1,2,4]triazolo[4,3-a]pyridin-4-yl)urea]
- IC50: ≤ 1 µM

Structure (SMILES): Cc1cc2c(cc(Nc3cccnc3)c3nnc(C)n32)n1Cc1ccccc1 [Example 256, 6-Benzyl-1,7-dimethyl-N-(pyridin-3-yl)-6H-pyrrolo[2,3-e][1,2,4]triazolo[4,3-a]pyridin-4-amine]
- IC50: ≤ 1 µM

Structure (SMILES): CCn1cnc(-c2cc3c(ccc4nnc(C)n43)n2Cc2ccccc2)c1 [Example 80, 6-benzyl-7-(1-ethyl-1H-imidazol-4-yl)-1-methyl-6H-pyrrolo[2,3-e][1,2,4]triazolo[4,3-a]pyridine]
- IC50: ≤ 1 µM

Structure (SMILES): Cc1nnc2ccc3c(cc(C(=O)NCC(C)C)n3Cc3ccccc3)n12 [Example 125, 6-Benzyl-N-isobutyl-1-methyl-6H-pyrrolo[2,3-e][1,2,4]triazolo[4,3-a]pyridine-7-carboxamide trifluoroacetate]
- IC50: ≤ 1 µM

Structure (SMILES): Cc1nnc2ccc3c(cc(-c4ccn(CCN5CCOCC5)n4)n3Cc3ccccc3)n12 [Example 77, 6-benzyl-1-methyl-7-[1-(2-morpholin-4-ylethyl)-1H-pyrazol-3-yl]-6H-pyrrolo[2,3-e][1,2,4]triazolo[4,3-a]pyridine]
- IC50: ≤ 1 µM
